Data from US10669272B2, “Substituted naphthyridinone compounds useful as T cell activators” (BRISTOL-MYERS SQUIBB COMPANY, priority 2018, dated 2020).
Read-outs that look alike come from different tables or passages of the source.

Columns and labels:
human DGKα = target: T1, human DGKα (Homo sapiens, UniProt P23743); assay: DGKα LIPGLO assay (extruded liposome substrate), in vitro DGK inhibition; format: biochemical; conditions: read-out: DGKa LIPGLO IC50
T1 construct: TVMV protease cleavage site (C); Hexa-His (C); made in house; host or cells: Sf9 insect cells (baculovirus, Bac-to-Bac)

human DGKζ = target: T2, human DGKζ (Homo sapiens, UniProt Q13574); assay: DGKζ LIPGLO assay (extruded liposome substrate), in vitro DGK inhibition; format: biochemical; conditions: read-out: DGKz LIPGLO IC50
T2 construct: TVMV protease cleavage site (C); Hexa-His (C); made in house; host or cells: Sf9 insect cells (baculovirus, Bac-to-Bac)

Human venous whole blood = assay: Human whole blood IFN-γ assay; format: cell-based; conditions: human whole blood, read-out: INFg Whole Blood Normalized Agonist EC50;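 also: blood from healthy donors exposed to compound for 1 h before stimulation with anti-CD3 and anti-CD28 at 1 µg/mL each, IFN-γ quantified in supernatant by AlphaLISA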
[1] = normalized to 3 μM reference compound with anti-CD3 plus anti-CD28 as 100% activation
[2] = Homo sapiens, 24 h, normalized to 3 μM reference compound with anti-CD3 plus anti-CD28 as 100% activation
[3] = Homo sapiens, 24 h, anti-CD3 plus anti-CD28, 24 hours, 3 μM reference compound = 100% activation
[4] = anti-CD3 plus anti-CD28, 24 hours, 3 μM reference compound = 100% activation

T2 sequence (Q13574 with tags, fused parts or gaps isoform Q13574-4): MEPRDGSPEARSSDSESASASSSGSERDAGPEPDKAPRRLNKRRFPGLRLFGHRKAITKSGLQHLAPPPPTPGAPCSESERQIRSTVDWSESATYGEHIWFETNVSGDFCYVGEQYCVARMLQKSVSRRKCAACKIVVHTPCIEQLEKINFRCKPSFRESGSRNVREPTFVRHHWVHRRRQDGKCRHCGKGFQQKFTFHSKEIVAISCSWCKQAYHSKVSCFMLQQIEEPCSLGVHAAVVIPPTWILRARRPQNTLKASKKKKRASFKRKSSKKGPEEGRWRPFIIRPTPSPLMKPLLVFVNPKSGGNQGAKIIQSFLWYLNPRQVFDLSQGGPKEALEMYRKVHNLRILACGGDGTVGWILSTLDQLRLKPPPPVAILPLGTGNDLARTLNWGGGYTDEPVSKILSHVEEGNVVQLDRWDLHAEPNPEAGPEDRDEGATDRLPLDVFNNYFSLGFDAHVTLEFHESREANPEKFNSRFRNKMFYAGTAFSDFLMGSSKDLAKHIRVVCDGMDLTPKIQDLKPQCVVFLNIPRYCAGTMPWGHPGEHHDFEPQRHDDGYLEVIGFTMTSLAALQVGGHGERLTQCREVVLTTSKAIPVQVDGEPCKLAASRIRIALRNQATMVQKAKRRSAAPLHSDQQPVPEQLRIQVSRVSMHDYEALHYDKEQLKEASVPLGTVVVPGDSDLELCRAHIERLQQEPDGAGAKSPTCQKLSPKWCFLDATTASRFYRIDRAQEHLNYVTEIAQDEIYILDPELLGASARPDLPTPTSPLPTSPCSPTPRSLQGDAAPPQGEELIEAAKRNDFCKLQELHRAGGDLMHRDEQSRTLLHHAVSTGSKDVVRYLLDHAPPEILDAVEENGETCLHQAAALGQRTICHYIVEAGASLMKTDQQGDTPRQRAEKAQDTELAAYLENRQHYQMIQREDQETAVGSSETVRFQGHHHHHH
T1 sequence (P23743 with tags, fused parts or gaps): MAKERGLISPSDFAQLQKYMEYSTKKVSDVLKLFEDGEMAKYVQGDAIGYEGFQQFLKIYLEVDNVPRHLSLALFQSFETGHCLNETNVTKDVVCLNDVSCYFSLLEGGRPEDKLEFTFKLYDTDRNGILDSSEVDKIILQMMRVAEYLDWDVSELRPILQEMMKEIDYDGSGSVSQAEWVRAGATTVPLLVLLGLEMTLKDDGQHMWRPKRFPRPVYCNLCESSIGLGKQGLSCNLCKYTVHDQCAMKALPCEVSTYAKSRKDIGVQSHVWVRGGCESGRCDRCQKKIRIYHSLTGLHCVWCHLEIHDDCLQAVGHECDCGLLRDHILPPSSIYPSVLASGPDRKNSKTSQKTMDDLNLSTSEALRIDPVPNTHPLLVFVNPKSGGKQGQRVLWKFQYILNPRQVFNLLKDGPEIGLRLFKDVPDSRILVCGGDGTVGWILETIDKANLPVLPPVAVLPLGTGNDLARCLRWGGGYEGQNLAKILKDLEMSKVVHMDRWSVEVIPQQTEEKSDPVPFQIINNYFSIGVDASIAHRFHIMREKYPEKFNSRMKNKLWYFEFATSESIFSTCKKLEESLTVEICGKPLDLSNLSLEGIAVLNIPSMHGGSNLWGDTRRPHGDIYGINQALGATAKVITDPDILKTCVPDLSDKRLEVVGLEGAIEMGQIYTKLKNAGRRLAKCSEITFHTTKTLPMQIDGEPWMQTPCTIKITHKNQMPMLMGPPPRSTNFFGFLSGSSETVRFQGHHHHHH

| SMILES | IC50 (human DGKα; liposome (LIPGLO) assay) [nM] | IC50 (human DGKζ; liposome (LIPGLO) assay) [nM] | IC50 (human DGKα; DGKα liposome (LIPGLO) assay) [nM] | IC50 (human DGKζ; DGKζ liposome (LIPGLO) assay) [nM] | EC50 (Human venous whole blood; [1]) [nM] | EC50 (Human venous whole blood; [2]) [nM] | EC50 (Human venous whole blood; [3]) [nM] | EC50 (Human venous whole blood; [4]) [nM] |
| --- | --- | --- | --- | --- | --- | --- | --- | --- |
| Cc1ccc(C(c2ccc(F)cc2)N2C[C@H](C)N(c3c(F)c(=O)n(C)c4ccc(C#N)nc34)C[C@H]2C)cc1 (stereo partly drawn) [Example 332, 7-fluoro-8-((2S,5R)-4-((4-fluorophenyl)(p-tolyl)methyl)-2,5-dimethylpiperazin-1-yl)-5-methyl-6-oxo-5,6-dihydro-1,5-naphthyridine-2-carbonitrile] | 3100 | 1000 |  |  |  | 1900 |  |  |
| Cc1ccc(C(c2ccc(C#N)cc2)N2C[C@H](C)N(c3cc(=O)n(C)c4ccc(C#N)nc34)C[C@H]2C)nc1 (single isomer, unassigned) [Example 361] | 210 | 1100 |  |  | 1100 |  |  |  |
| CC(c1ccccc1F)N1C[C@H](C)N(c2c(C#N)c(=O)n(C)c3ccc(C#N)nc23)C[C@H]1C (single isomer, unassigned) [Example 798] |  |  | 9800 | > 250000 |  |  |  | 20000 |
| C[C@@H]1CN(c2cc(=O)n(C)c3ccc(C#N)nc23)[C@@H](C)CN1C(c1ccc(F)cc1)C(F)(F)F (single isomer, unassigned) [Example 583] | 100 | 950 |  |  | 460 |  |  |  |
| C[C@@H]1CN(c2c(F)c(=O)n(C)c3ccc(C#N)nc23)[C@@H](C)CN1C(c1ccc(F)cc1)c1c(F)cccc1F (single isomer, unassigned) [Example 336] | 740 | 230 |  |  | 2000 |  |  |  |
| C[C@@H]1CN(c2c(C#N)c(=O)n(C)c3ccc(C#N)nc23)CCN1Cc1ccccn1 [Example 990] |  |  | 740 | 25000 |  |  | 20000 |  |
| CC(c1cccc(C(F)(F)F)n1)N1C[C@H](C)N(c2cc(=O)n(C)c3ccc(C#N)nc23)C[C@H]1C (single isomer, unassigned) [Example 636] | 12000 | 8000 |  |  | 3900 |  |  |  |
| C[C@@H]1CN(c2c(C#N)c(=O)n(C)c3ccc(C#N)nc23)CCN1C(c1ccc(Cl)cc1)c1ccncn1 (single isomer, unassigned) [Example 319] | 2200 | 6600 |  |  |  | 1600 |  |  |
| C[C@@H]1CN(c2cc(=O)n(C)c3ccc(C#N)nc23)[C@@H](C)CN1C(c1ccc(F)cc1)c1ccnc(C(C)(C)C)n1 (single isomer, unassigned) [Example 409] | 5300 | 53 |  |  | 430 |  |  |  |
| C[C@@H]1CN(c2c(C#N)c(=O)n(C)c3ccc(C#N)nc23)[C@@H](C)CN1C(c1ccc(F)cc1)c1cscn1 (single isomer, unassigned) [Example 857] |  |  | 1000 | 1900 |  |  | 1400 |  |
| CC(c1ccc(OC(F)(F)F)cc1)N1C[C@H](C)N(c2cc(=O)n(C)c3ccc(C#N)nc23)C[C@H]1C (single isomer, unassigned) [Example 436] | 65 | 810 |  |  | 440 |  |  |  |
| Cc1ccc(C(C)N2C[C@H](C)N(c3c(C#N)c(=O)n(C)c4ccc(C#N)nc34)C[C@H]2C)cc1 (single isomer, unassigned) [Example 785] |  |  | 690 | > 250000 |  |  |  | 6400 |
| CC(c1ccc(F)cc1)N1C[C@H](C)N(c2c(C#N)c(=O)n(C)c3ccc(C#N)nc23)C[C@H]1C (single isomer, unassigned) [Example 782] |  |  | 180 | 3400 |  |  | 1100 |  |
| C[C@@H]1CN(c2c(C#N)c(=O)n(C)c3ccc(C#N)nc23)CCN1C(c1ccccc1)c1cc(F)cc(F)c1 (single isomer, unassigned) [Example 875] |  |  | 1700 | 510 |  |  | 3100 |  |
| Cc1ccc(C(c2ccc(F)cc2)N2C[C@H](C)N(c3c(C#N)c(=O)n(C)c4ccc(C#N)nc34)C[C@H]2C)cc1 (stereo partly drawn) [Example 818] |  |  | 58000 | 7300 |  |  |  | 4200 |
| C[C@@H]1CN(c2cc(=O)n(C)c3ccc(C#N)nc23)[C@@H](C)CN1C(c1ccc(Br)cc1)c1nc(C2CC2)no1 (stereo partly drawn) [Example 760] |  |  | 70 | 22 |  |  |  | 48 |
| C[C@@H]1CN(c2cc(=O)n(C)c3ccc(C#N)nc23)[C@@H](C)CN1C(c1ccc(OC(F)(F)F)cc1)c1nc(C2CC2)no1 (single isomer, unassigned) [Example 758] |  |  | 860 | 75 |  |  | 300 |  |
| C[C@@H]1CN(c2c(F)c(=O)n(C)c3ccc(C#N)nc23)[C@@H](C)CN1C(c1ccc(F)cc1)c1cccc(F)c1 (single isomer, unassigned) [Example 331] | 1700 | 1900 |  |  | 20000 |  |  |  |
| C[C@@H]1CN(c2c(C#N)c(=O)n(C)c3ccc(C#N)nc23)CCN1Cc1cccc(C(F)(F)F)c1 [Example 1003] |  |  | 2800 | 3900 |  |  | 20000 |  |
| C[C@@H]1CN(c2cc(=O)n(C)c3ccc(C#N)nc23)[C@@H](C)CN1C(c1cccc(F)c1)c1cccc2c1OCCCO2 (single isomer, unassigned) [Example 445] | 40000 | 420 |  |  |  | 2600 |  |  |
| C[C@@H]1CN(c2c(C#N)c(=O)n(C)c3ccc(C#N)nc23)CCN1C(c1ccc(F)cc1)c1ccc(C#N)cn1 (single isomer, unassigned) [Example 908] |  |  | 770 | 3900 |  |  |  | 1400 |
| [2H]C(C)(c1ccc(F)cc1)N1C[C@H](C)N(c2c(F)c(=O)n(C)c3ccc(C#N)nc23)C[C@H]1C (single isomer, unassigned) [Example 424] | 290 | 37000 |  |  | 16000 |  |  |  |

Second part, led by results:

| IC50 (human DGKα; liposome (LIPGLO) assay) [nM] | IC50 (human DGKζ; liposome (LIPGLO) assay) [nM] | IC50 (human DGKα; DGKα liposome (LIPGLO) assay) [nM] | IC50 (human DGKζ; DGKζ liposome (LIPGLO) assay) [nM] | SMILES | EC50 (Human venous whole blood; [1]) [nM] | EC50 (Human venous whole blood; [2]) [nM] | EC50 (Human venous whole blood; [3]) [nM] | EC50 (Human venous whole blood; [4]) [nM] |
| --- | --- | --- | --- | --- | --- | --- | --- | --- |
| 3700 | 4000 |  |  | CC[C@@H]1CN(c2cc(=O)n(C)c3ccc(C#N)nc23)[C@@H](C)CN1C(C)c1ccc(F)c(F)c1 (single isomer, unassigned) [Example 1092] | 3200 |  |  |  |
|  |  | 3900 | 11000 | C[C@@H]1CN(c2c(C#N)c(=O)n(C)c3ccc(C#N)nc23)CCN1Cc1cccc(-c2ccccc2)c1 [Example 1004] |  |  | 3500 |  |
| 11000 | 43 |  |  | COc1cc(F)ccc1C(C)N1C[C@H](C)N(c2cc(=O)n(C)c3ccc(C#N)nc23)C[C@H]1C (single isomer, unassigned) [Example 1236] | 1300 |  |  |  |
| 21 | 140 |  |  | CC[C@H]1CN(C(C)c2ccc(OC(F)(F)F)cc2)[C@H](CC)CN1c1cc(=O)n(C)c2ccc(C#N)nc12 (single isomer, unassigned) [Example 1053] | 210 |  |  |  |
| 260 | 1500 |  |  | CC[C@H]1CN(C(C)c2ccc(C(F)(F)F)cc2)[C@H](C)CN1c1cc(=O)n(C)c2ccc(C#N)nc12 (single isomer, unassigned) [Example 1144] | 250 |  |  |  |
| 200 | 19 |  |  | COc1cc(F)c(C(C)N2C[C@H](C)N(c3cc(=O)n(C)c4ccc(C#N)nc34)C[C@H]2C)c(F)c1 (stereo partly drawn) [Example 1242] |  | 180 |  |  |
| 39000 | 6200 |  |  | C[C@H]1CN(C(c2ccc(F)cc2)c2ccc(F)cc2)[C@H](CN(C)C)CN1c1cc(=O)n(C)c2ccc(C#N)nc12 [Example 1169] |  | 2300 |  |  |
| 4200 | 700 |  |  | COC[C@@H]1CN(c2cc(=O)n(C)c3ccc(C#N)nc23)[C@@H](C)CN1C(c1ccc(F)cc1)c1ccc(C#N)cc1 (single isomer, unassigned) [Example 1157] |  | 270 |  |  |
| 65 | 130 |  |  | CC[C@@H]1CN(c2cc(=O)n(C)c3ccc(C#N)nc23)[C@@H](C)CN1C(c1ccc(F)cc1)c1ccc(C(F)(F)F)cn1 (single isomer, unassigned) [Example 1107] | 77 |  |  |  |
| 48000 | 52000 |  |  | CC(c1ccc(OC(F)(F)F)cc1)N1C[C@H](C)N(c2cc(=O)n(C)c3ccc(C#N)nc23)C[C@H]1CN1CCOCC1 (single isomer, unassigned) [Example 1416] | 20000 |  |  |  |
| 22000 | 3200 |  |  | C[C@@H]1CN(C(c2ccc(F)cc2)c2ccc(F)cc2)[C@@H](CO)CN1c1cc(=O)n(C)c2ccc(C#N)nc12 [Example 1172, 8-((2R,5R)-4-(bis(4-fluorophenyl)methyl)-5-(hydroxymethyl)-2-methylpiperazin-1-yl)-5-methyl-6-oxo-5,6-dihydro-1,5-naphthyridine-2-carbonitrile] |  | 420 |  |  |
| 41 | 75 |  |  | CC[C@@H]1CN(c2cc(=O)n(C)c3ccc(C#N)nc23)[C@@H](C)CN1C(C)c1ccc(C#N)cc1 (single isomer, unassigned) [Example 1345] | 480 |  |  |  |
| 4400 | 1400 |  |  | CC[C@@H]1CN(c2cc(=O)n(C)c3ccc(C#N)nc23)[C@@H](C)CN1C(C)c1ccc(C2CC2)cc1F (single isomer, unassigned) [Example 1341] | 2000 |  |  |  |
| 21000 | 5200 |  |  | C[C@@H]1CN(c2cc(=O)n(C)c3ccc(C#N)nc23)[C@@H](C)CN1Cc1cc(-c2ccccc2C#N)no1 [Example 1427] |  | 20000 |  |  |
|  |  | 870 | 7700 | C[C@@H]1CN(c2c(C#N)c(=O)n(C)c3ccc(C#N)nc23)CCN1Cc1cccc(F)c1 [Example 1005] |  |  | 20000 |  |
